Complex formation data for 61 compounds are collected here from ChEMBL document CHEMBL1135425, “Antitumor agents. 213. Modeling of epipodophyllotoxin derivatives using variable selection k nearest neighbor QSAR method” (J Med Chem, 2002).

Where “and” joins values, the source holds several entries; their conditions need not be identical. Equal values may be shown once.

For the assay, the target named is DNA topoisomerase II (Homo sapiens) (UniProt P11388+Q02880). Put plainly: Percentage of intracellular covalent DNA-topoisomerase II complexes formed. The assay is classed as cell-based.
Turning to `COc1cc([C@@H]2c3cc4c(cc3[C@@H](Nc3ccccc3O)[C@H]3COC(=O)[C@H]23)OCO4)cc(OC)c1O`, the Complex formation was 151%.
`COc1cc([C@@H]2c3cc4c(cc3[C@@H](Oc3ccc(F)cc3)[C@H]3COC(=O)[C@H]23)OCO4)cc(OC)c1O` had a Complex formation of 57%.
The figure for `COc1cc2c(cc1OC)[C@@H](c1cc(OC)c(O)c(OC)c1)[C@H]1C(=O)OC[C@@H]1C2Nc1ccc(F)cc1` (stereo partly specified) is 108%; for `COC1=CC([C@@H]2c3cc4c(cc3C(NC(=O)N(C)N=O)[C@H]3COC(=O)[C@H]23)OCO4)=CC(=O)C1=O` (stereo partly specified) it is 41%; for `COc1cc([C@@H]2c3cc4c(cc3[C@@H](Nc3cc(N)ccc3O)[C@H]3COC(=O)[C@H]23)OCO4)cc(OC)c1O` it is 11%.
In the case of `COc1ccc(NC2c3cc4c(cc3[C@@H](c3cc(O)c(O)c(OC)c3)[C@H]3C(=O)OC[C@H]23)OCO4)cc1` (stereo partly specified) it was 96%.
The figure for `COc1cc([C@@H]2c3cc4c(cc3[C@@H](NCc3ccc(C(F)(F)F)cc3)[C@H]3COC(=O)[C@H]23)OCO4)cc(OC)c1O` is 99%.
Consider `COc1cc([C@@H]2c3cc4c(cc3[C@@H](NCc3ccc(C#N)cc3)[C@H]3COC(=O)[C@H]23)OCO4)cc(OC)c1O`, for which the Complex formation turned out to be 284%.
In the case of `COc1cc([C@@H]2c3cc4c(cc3[C@@H](Nc3cccnc3)[C@H]3COC(=O)[C@H]23)OCO4)cc(OC)c1O` it was 148%; in that of `COc1cc([C@@H]2c3cc4c(cc3[C@@H](Nc3cccc([N+](=O)[O-])c3)[C@H]3COC(=O)[C@H]23)OCO4)cc(OC)c1O`, 230%; in that of `COc1cc([C@@H]2c3cc4c(cc3[C@@H](NC(=O)Nc3ccccc3)[C@H]3COC(=O)[C@H]23)OCO4)cc(OC)c1O`, 148%.
In the case of `COc1cc([C@@H]2c3cc4c(cc3[C@@H](Nc3ccc(Cl)cc3)[C@H]3COC(=O)[C@H]23)OCO4)cc(OC)c1O` it was 99%; in that of `COC1=CC([C@@H]2c3cc4c(cc3C(NC(N=O)C(C)C)[C@H]3COC(=O)[C@H]23)OCO4)=CC(=O)C1(O)CC(C)=O` (stereo partly specified), 1%; in that of `COc1cc([C@@H]2c3cc4c(cc3[C@@H](Nc3cc([N+](=O)[O-])ccc3O)[C@H]3COC(=O)[C@H]23)OCO4)cc(OC)c1O`, 15%.
In the case of `CCOC(=O)c1ccc(NC2c3cc(O)c(O)cc3[C@@H](c3cc(OC)c(O)c(OC)c3)[C@H]3C(=O)OC[C@H]23)cc1` (stereo partly specified) it was 138%; in that of `COc1cc([C@@H]2c3cc4c(cc3[C@@H](Nc3ccc5c(c3)OCO5)[C@H]3COC(=O)[C@H]23)OCO4)cc(OC)c1O`, 164%; in that of `COc1cc([C@@H]2c3cc4c(cc3[C@@H](Nc3ccc5c(c3)OCCO5)[C@H]3COC(=O)[C@H]23)OCO4)cc(OC)c1O`, 279%.
`COc1cc([C@@H]2c3cc4c(cc3[C@@H](NCc3cccc(Cl)c3)[C@H]3COC(=O)[C@H]23)OCO4)cc(OC)c1O` displayed a Complex formation of 159%.
The figure for `COc1ccc([N+](=O)[O-])cc1N[C@@H]1c2cc3c(cc2[C@@H](c2cc(OC)c(O)c(OC)c2)[C@H]2C(=O)OC[C@@H]21)OCO3` is 12%.
The figure for `COc1cc([C@@H]2c3cc4c(cc3[C@@H](Nc3cccc(C#N)c3)[C@H]3COC(=O)[C@H]23)OCO4)cc(OC)c1O` is 137%; for `COc1cc([C@@H]2c3cc4c(cc3[C@@H](NCc3ccccc3)[C@H]3COC(=O)[C@H]23)OCO4)cc(OC)c1O` it is 181%; for `CCC(C)N[C@@H]1c2cc3c(cc2[C@@H](c2cc(OC)c(O)c(OC)c2)[C@H]2C(=O)OC[C@@H]21)OCO3` (stereo partly specified) it is 73%.
The figure for `COc1cc([C@@H]2c3cc(O)c(O)cc3[C@@H](Nc3ccc([N+](=O)[O-])cc3)[C@H]3COC(=O)[C@H]23)cc(OC)c1OC` is 23%; for `CNC(=O)N[C@@H]1c2cc3c(cc2[C@@H](c2cc(OC)c(O)c(OC)c2)[C@H]2C(=O)OC[C@@H]21)OCO3` it is 81%; for `COc1cc([C@@H]2c3cc4c(cc3C(Nc3ccc(Cl)cc3)[C@H]3COC(=O)[C@H]23)OCO4)cc(O)c1O` (stereo partly specified) it is 77%.
In turn, `COc1ccc(NC2c3cc4c(cc3[C@@H](c3cc(O)c(O)c(OC)c3)[C@H]3C(=O)OC[C@H]23)OCO4)cc1OC` (stereo partly specified) displayed a Complex formation of 69%.
The figure for `COc1cc([C@@H]2c3cc4c(cc3[C@@H](Nc3cc([N+](=O)[O-])cc([N+](=O)[O-])c3)[C@H]3COC(=O)[C@H]23)OCO4)cc(OC)c1O` is 20%; for `COC(=O)c1cc(N[C@@H]2c3cc4c(cc3[C@@H](c3cc(OC)c(O)c(OC)c3)[C@H]3C(=O)OC[C@@H]32)OCO4)cc(C(=O)OC)c1` it is 50%.
The compound `COc1cc([C@@H]2c3cc4c(cc3[C@@H](Nc3cc(F)cc(F)c3)[C@H]3COC(=O)[C@H]23)OCO4)cc(OC)c1O` gave a Complex formation of 115%.
In the case of `COC1=CC([C@@H]2c3cc4c(cc3C(NC(=O)N(CCCl)N=O)[C@H]3COC(=O)[C@H]23)OCO4)=CC(=O)C1=O` (stereo partly specified) it was 7%; in that of `COc1cc([C@@H]2c3cc4c(cc3[C@@H](NC(=O)Nc3ccc(F)cc3)[C@H]3COC(=O)[C@H]23)OCO4)cc(OC)c1O`, 118%.
The figure for `COc1cc([C@@H]2c3cc4c(cc3[C@@H](Nc3nc5ccccc5[nH]3)[C@H]3COC(=O)[C@H]23)OCO4)cc(OC)c1O` is 58%; for `COc1cc([C@@H]2c3cc(O)c(O)cc3C(Nc3ccc(C#N)cc3)[C@H]3COC(=O)[C@H]23)cc(OC)c1OC` (stereo partly specified) it is 33%; for `COc1cc([C@@H]2c3cc4c(cc3[C@@H](Nc3ccc(N)cc3)[C@H]3COC(=O)[C@H]23)OCO4)cc(OC)c1O` it is 330%.
`COc1cc([C@@H]2c3cc4c(cc3C(Nc3ccc(C(C)=O)cc3)[C@H]3COC(=O)[C@H]23)OCO4)cc(O)c1O` (stereo partly specified): the Complex formation worked out at 147%.
The figure for `COc1cc([C@@H]2c3cc4c(cc3[C@@H](Nc3ccc(C(=O)O)cc3)[C@H]3COC(=O)[C@H]23)OCO4)cc(OC)c1O` is 6.9%; for `COCCN[C@@H]1c2cc3c(cc2[C@@H](c2cc(OC)c(O)c(OC)c2)[C@H]2C(=O)OC[C@@H]21)OCO3` it is 111%.
The figure for `COc1cc([C@@H]2c3cc4c(cc3[C@@H](NC(=O)NCCCl)[C@H]3COC(=O)[C@H]23)OCO4)cc(OC)c1O` is 143%; for `COc1cc([C@@H]2c3cc4c(cc3[C@@H](NCCN3CCCCC3)[C@H]3COC(=O)[C@H]23)OCO4)cc(OC)c1O` it is 190% and 183%.
`COc1cc([C@@H]2c3cc4c(cc3[C@@H](NC(=O)c3cccc(C#N)c3)[C@H]3COC(=O)[C@H]23)OCO4)cc(OC)c1O` yielded a Complex formation of 149%.
The figure for `COc1cc([C@@H]2c3cc4c(cc3[C@@H](O[C@@H]3O[C@@H]5CO[C@@H](C)O[C@H]5[C@H](O)[C@H]3O)[C@H]3COC(=O)[C@H]23)OCO4)c(Cl)c(OC)c1O` is 6.1%; for `COc1cc([C@@H]2c3cc4c(cc3[C@@H](Nc3ccccc3F)[C@H]3COC(=O)[C@H]23)OCO4)cc(OC)c1O` it is 121%; for `COc1ccc(N[C@@H]2c3cc4c(cc3[C@@H](c3cc(OC)c(O)c(OC)c3)[C@H]3C(=O)OC[C@@H]32)OCO4)cc1OC` it is 180%.
In the case of `COc1cc([C@@H]2c3cc4c(cc3[C@@H](Nc3ccccc3Cl)[C@H]3COC(=O)[C@H]23)OCO4)cc(OC)c1O` it was 32%; in that of `COC(=O)c1ccc(N[C@@H]2c3cc4c(cc3[C@@H](c3cc(OC)c(O)c(OC)c3)[C@H]3C(=O)OC[C@@H]32)OCO4)cc1`, 207%.
The figure for `CCOC(=O)c1ccc(NC2c3cc(OC)c(OC)cc3[C@@H](c3cc(OC)c(O)c(OC)c3)[C@H]3C(=O)OC[C@H]23)cc1` (stereo partly specified) is 127%; for `COC(=O)c1ccc(N[C@@H]2c3cc4c(cc3[C@@H](c3cc(OC)c(O)c(OC)c3)[C@H]3C(=O)OC[C@@H]32)OCO4)cc1O` it is 129%; for `COc1cc([C@@H]2c3cc4c(cc3[C@@H](NCc3cccc([N+](=O)[O-])c3)[C@H]3COC(=O)[C@H]23)OCO4)cc(OC)c1O` it is 130%.
In turn, `COc1cc([C@@H]2c3cc4c(cc3C(Nc3ccc(O)cc3)[C@H]3COC(=O)[C@H]23)OCO4)cc(O)c1O` (stereo partly specified) showed a Complex formation of 83%.
The figure for `COc1cc([C@@H]2c3cc4c(cc3[C@@H](Nc3ccc(Br)cc3)[C@H]3COC(=O)[C@H]23)OCO4)cc(OC)c1O` is 179%.
Compound `COc1cc([C@@H]2c3cc4c(cc3[C@@H](Nc3cccc(Br)c3)[C@H]3COC(=O)[C@H]23)OCO4)cc(OC)c1O` gave a Complex formation of 62%.
Compound `COc1cc([C@@H]2c3cc4c(cc3[C@@H](NC(=O)c3ccc(C(C)=O)cc3)[C@H]3COC(=O)[C@H]23)OCO4)cc(OC)c1O` yielded a Complex formation of 124%.
In the case of `COc1cc([C@@H]2c3cc4c(cc3[C@@H](Nc3cc(C(F)(F)F)cc(C(F)(F)F)c3)[C@H]3COC(=O)[C@H]23)OCO4)cc(OC)c1O` it was 21%.
In the case of `COc1cc([C@@H]2c3cc4c(cc3[C@@H](NC(=O)c3ccc([N+](=O)[O-])cc3)[C@H]3COC(=O)[C@H]23)OCO4)cc(OC)c1O` it was 160%.
In the case of `CCCN[C@@H]1c2cc3c(cc2[C@@H](c2cc(OC)c(O)c(OC)c2)[C@H]2C(=O)OC[C@@H]21)OCO3` it was 69.7%; in that of `COc1cc([C@@H]2c3cc4c(cc3[C@@H](Nc3ccc(F)cc3)[C@H]3COC(=O)[C@H]23)OCO4)cc(OC)c1O`, 213%.
Compound `COc1cc([C@@H]2c3cc4c(cc3[C@@H](Nc3ccc(-c5nc6ccccc6[nH]5)cc3)[C@H]3COC(=O)[C@H]23)OCO4)cc(OC)c1O` gave a Complex formation of 128%.
The figure for `COc1cc([C@@H]2c3cc4c(cc3[C@@H](NC(=O)c3ccc(C#N)cc3)[C@H]3COC(=O)[C@H]23)OCO4)cc(OC)c1O` is 159%; for `COc1cc([C@@H]2c3cc4c(cc3[C@@H](O)[C@H]3COC(=O)[C@H]23)OCO4)cc(OC)c1O` it is 42.2%.
In the case of `COc1cc([C@@H]2c3cc4c(cc3[C@@H](NCCO)[C@H]3COC(=O)[C@H]23)OCO4)cc(OC)c1O` it was 121%; in that of `COc1cc2c(cc1OC)[C@@H](c1cc(OC)c(O)c(OC)c1)[C@H]1C(=O)OC[C@@H]1C2Nc1ccc([N+](=O)[O-])cc1` (stereo partly specified), 75%.
